# Test results taken from patent US8921356B2, “Compositions comprising nicotinic agonists and methods of using same” (priority 2007, dated 2014).
# Assays:
# [1] = test system: rats; experiment: Nicotine-induced hypothermia in rats; format: in vivo, rat
# Description: (§1) (ii) Animals—Young adult (240 g-290 g) male Sprague-Dawley rats (Charles River, USA or Harlan, Israel) were used in the experiments.
# (iv) Determination of nicotine-induced hypothermia—Rats were placed individually in experimental cages kept at 25° C. and were allowed to rest for 1 h before drug injection. During this period, body temperature was measured at 15- or 30-min intervals in order to exclude the effect of handling on animal temperature. Body temperature was measured with a rectal thermistor probe (M.R.C, Israel, sensitivity 0.1° C.). The probe was lubricated with petroleum before being inserted into the rectum to a depth of 2 cm. The data are presented as changes in rectal temperature from the basal values. Basal values are those taken immediately before the drug injection (time 0).
# Rats were divided into three treatment groups, each of 5 rats, as follows: 1. treatment with nicotine (2 mg/kg); 2. treatment with opipramol (20 mg/kg); 3. treatment with opipramol (20 mg/kg) together with nicotine (2 mg/kg). Rats were injected with nicotine twice on the first day (FIG. 3A, D-1, left panel) and three times on days 2 (FIG. 3A, D-2, middle panel) and 3 (FIG. 3A, D-3, right panel). […] Nicotine was injected with and without opipramol, and body temperature was measured at 30 min intervals. […] FIG. 3A: Each point is the Mean±S.E.M. of change in body temperature compared to the temperature measured at time 0 (before the first injection) for at least five rats. FIG. 3B depicts a bar histogram representing mean±S.E.M. of the maximum change in body temperature compared to the temperature measured just before the injection.
# The body temperature (0 C) was measured 30 min post injection. FIG. 7 depicts the maximum decrease in body temperature after each injection.
# Nicotine (2 mg/kg), lidocaine (15 mg/kg), and nicotine+lidocaine (2 mg/kg+15 mg/kg) were administered to rats 2× day for two days, following the above protocol.
# [2] = test system: nAChR; experiment: Nicotine-induced 45Ca2+ uptake (calcium influx) in SK-N-SH human neuroblastoma cells; format: cell-based
# Description: (i) Cells—SK-N-SH human neuroblastoma cell line was obtained from the American Type Culture Collection (ATTC).
# SK-N-SH human neuroblastoma cells, known to express nAChR, were grown in Dulbecco/Vogt Modified Eagle's Minimal Essential Medium (DMEM) to confluency in a 24-well plate. DMEM containing 45Ca^2+ without any other addition (1) or with 50 μM nicotine (2) or with 50 μM nicotine+10 μM opipramol (3) was added to cells grown in 24-well plates and preincubated with medium alone for 15 minutes, then washed rapidly. Intra cellular radioactivity was determined for each condition. The same medium with nicotine was added also to cells that were preincubated for 15 minutes with either 50 μM nicotine alone (4) or with 50 μM nicotine+10 μM opipramol (5). 45Ca2+ uptake was determined after 10 min. Activation of the nicotinic receptors causes calcium influx so it is a measure of the nicotinic receptor activity.
# [3] = test system: rats; experiment: Elevated plus maze (EPM) anxiety test in rats; format: in vivo, rat
# From the text: as §1
# (v) Elevated […] Maze (EPM)—The purpose of the EPM is to determine the anxiolytic effects of tested drugs. The time that the experimental animals spend in the open arm of the maze is an indication for the anxiolytic effect, the longer the time the higher the anxiolytic effect. The EPM is a wooden, cross-shaped device, consisting of four arms arranged in the shape of a plus sign. Two of the arms have no side or end walls (open-arms; 30×5×0.25 cm). The other two arms have side walls and end walls, but are open on top (closed arms; 30×5×15 cm). The maze is elevated to a height of 50 cm. The animals are kept in a relatively dark box before exposure to the maze in order to increase their exploratory behavior. The tests were done in a silent environment under dim light. The animals were carried to the laboratory and left there undisturbed for 1 h before the experiment.
# This test is used to assess anxiety. Rats were randomly assigned into five groups each containing 5 animals and then tested in an Elevated Plus Maze (EPM). In the first (control) group, rats were injected with saline once a day; in the second group rats were injected with nicotine (0.5 mg/kg or 2 mg/kg) three times a day and were tested in the maze after the third injection; in the third group rats were injected with opipramol (10 mg/kg) three times a day and then were tested in the maze; in the fourth group, rats were injected with opipramol (10 mg/kg) or galantamine (5 mg/kg), and nicotine (2 mg/kg or 0.5 mg/kg) three times a day and were tested in the maze after the last injection. The behavioral response to nicotine in the EPM was assessed 30 min after the first injection, and then again 30 minutes after the third injection.
# [4] = test system: BDNF mRNA; experiment: BDNF mRNA expression in rat cerebral cortex; format: in vivo
# Description: Nicotine alone (0.5 mg/kg) or opipramol (10 mg/kg) or nicotine (0.5 mg/kg)+opipramol (10 mg/kg) were injected intraperitoneally (ip) to rats (5 per group) at intervals of 2 hours during a single day. The drugs were dissolved in saline and used in the same day. […] Animals were sacrificed 90 min after each injection and brain derived neurotrophic factor (BDNF) and β-actin mRNA were determined in homogenates of the cerebral cortex of each animal.
# Homogenates of the cerebral cortex were prepared as follows: Rat brain tissues were sonicated for 15 sec and total RNA was obtained using the Trizol Reagent (Molecular Research Center, Cincinnati, Ohio, USA), according to the manufacturer's instructions. RNA concentrations were quantified by measuring the absorbances at 260 and 280 nm. RNA was reverse transcribed into cDNA during 45 min at 42° c. The cDNA products were diluted 1:40 for BDNF and 1:1000 for β-actin (a housekeeping gene for internal standard). In order to amplify gene specific sequences, PCR techniques were applied using ReadyMix PCR Master Mix (AB-genes, Surrey, UK) and specific primer sequences for BDNF and beta actin. The products were separated by electrophoresis on agarose and quantification of the bands was done by an image analyzer.
# [5] = test system: smooth muscle of a guinea pig ileum; experiment: Nicotine-induced smooth muscle contraction in the guinea pig ileum preparation
# Description: The free end of a smooth muscle of a guinea pig ileum was attached to a force displacement transducer. Isometric tension of the smooth muscle was continuously monitored by outputting the preamplified transducer signal to a computer.
# The ileum preparation was washed by physiological solution 10 min after the addition of nicotine and then nicotine at a final concentration of 25 μM was added again to the muscle preparation for additional 10 min (2nd stimulation; bar 3).
smiles,measurement,setting,value
CN(C)CCCN1c2ccccc2CCc2ccc(Cl)cc21 [clomipramine],hypothermic effect of nicotine,"[1]; clomipramine 30 mg/kg with nicotine 2 mg/kg, consecutive injections 2 h apart",no further reduction in the hypothermic effect
same,hypothermic effect of nicotine,"[1]; clomipramine 30 mg/kg with nicotine 2 mg/kg, first injection",inhibited to some extent the effect of nicotine
OCCN1CCN(CCCN2c3ccccc3C=Cc3ccccc32)CC1 [opipramol],calcium uptake (45Ca2+),"[2]; first stimulation with 50 μM nicotine in the presence of 10 μM opipramol, compared to nicotine alone",only slightly smaller
same,nAChR desensitization (45Ca2+ uptake at second nicotine stimulation),[2]; second stimulation with 50 μM nicotine after 15 min preincubation with 50 μM nicotine + 10 μM test drug,remarkedly reduced
same,anxiolytic effect (time in open arm),"[3]; nicotine 0.5 mg/kg together with opipramol 10 mg/kg or galantamine 5 mg/kg, second injection",the anxiolytic effect was seen in the second injection
same,anxiolytic effect (time in open arm),[3]; nicotine 2 mg/kg together with opipramol 10 mg/kg or galantamine 5 mg/kg,inhibited desensitization
same,change in body temperature,[1]; opipramol 20 mg/kg alone,only a slight decrease in body temperature
same,magnitude of the reduction in body temperature,"[1]; opipramol 20 mg/kg together with nicotine 2 mg/kg, second and third day, after second and third injections, P<0.001",significantly larger than that induced by nicotine alone
same,BDNF mRNA level (ratio to β-actin),"[4]; nicotine 0.5 mg/kg + opipramol 10 mg/kg ip, third injection",rising even above that which was observed with nicotine alone
same,BDNF mRNA level (ratio to β-actin),"[4]; opipramol 10 mg/kg ip alone, third injection",no effect
same,effect of nicotine (muscle contraction) relative to that induced by nicotine alone,"[5]; 1st stimulation, 25 μM nicotine in the presence of 10 μM opipramol",about 50%
same,muscle contraction response to nicotine,[5]; 2nd stimulation with 25 μM nicotine after 1st stimulation in the presence of opipramol,almost full response
same,duration of the effect of nicotine (muscle contraction),"[5]; nicotine administered together with opipramol, until removal by washing, data not shown",maintained steady for one hour
CCN(CC)CC(=O)Nc1c(C)cccc1C [lidocaine],hypothermic effect of nicotine,"[1]; lidocaine 15 mg/kg + nicotine 2 mg/kg, 2x day for two days",maintained the hypothermic effect of nicotine
"CN1CCC[C@H]1c1cccnc1 [nicotine, S-3-(1-methyl-2-pyrrolidinyl)pyridine]",calcium influx (45Ca2+ uptake),"[2]; first exposure to 50 μM nicotine, compared to basal uptake, SK-N-SH cells",caused an increase in calcium influx
same,calcium influx (45Ca2+ uptake),[2]; second exposure to 50 μM nicotine after 15 min preincubation with nicotine alone,considerably reduced
same,anxiolytic effect (time in open arm),"[3]; nicotine alone, 0.5 mg/kg and 2 mg/kg, second injection",did not induce an anxiolytic effect
same,time spent in the open arm (anxiolytic effect),[3]; one injection of nicotine,significantly increased
same,hypothermic effect,"[1]; nicotine 2 mg/kg alone, 2x day for two days",loss of the hypothermic effect
same,hypothermic effect (maximum decrease in body temperature),"[1]; nicotine 2 mg/kg alone, 3 injections 2 h apart",gradual decrease in the hypothermic effect
same,magnitude of the decrease in body temperature,"[1]; nicotine 2 mg/kg repeatedly injected for three consecutive days, P<0.05",became progressively smaller
same,BDNF mRNA level (ratio to β-actin),"[4]; nicotine 0.5 mg/kg ip alone, repeated (third) injection",much smaller rise
same,BDNF mRNA level (ratio to β-actin),"[4]; nicotine 0.5 mg/kg ip, first injection",increased
same,muscle contraction,"[5]; 1st stimulation, 25 μM nicotine alone",caused muscle contraction
same,muscle contraction,[5]; 2nd stimulation with 25 μM nicotine after 1st stimulation with nicotine alone,did not induce muscle contraction
